Measurements from ChEMBL document CHEMBL4261615, “Design, synthesis, biological evaluation and cellular imaging of imidazo[4,5-b]pyridine derivatives as potent and selective TAM inhibitors” (Bioorg Med Chem, 2018).
The source made the active and inactive calls. The calls are words filed in the database; no cut-off is given here.

Legend:
[1] = target: Tyrosine-protein kinase receptor UFO (Homo sapiens) (UniProt P30530); experiment: Inhibition of recombinant His-tagged human Axl (473 to end residues) cytoplasmic domain expressed in insect system using poly (Glu-Ala-Tyr) peptide as substrate after 1.5 hrs by ELISA
[2] = target: Serine/threonine-protein kinase B-raf (Homo sapiens) (UniProt P15056); experiment: Binding affinity to wild-type human partial length BRAF (S429 to E741 residues) expressed in mammalian expression system assessed as fraction of unbound kinase to substrate at 10 uM after 1 hr by KinomeScan assay
[3] = target: Tyrosine-protein kinase receptor UFO (Homo sapiens) (UniProt P30530); experiment: Binding affinity to human AXL (R497 to Y821 residues) expressed in bacterial expression system assessed as fraction of unbound kinase to substrate at 10 uM after 1 hr by KinomeScan assay
[4] = target: T1, Tyrosine-protein kinase Mer (Homo sapiens) (UniProt Q12866); experiment: Binding affinity to wild-type partial length human MER (R557 to L884 residues) expressed in bacterial expression system assessed as fraction of unbound kinase to substrate at 10 uM after 1 hr by KinomeScan assay
T1 sequence (whole entry): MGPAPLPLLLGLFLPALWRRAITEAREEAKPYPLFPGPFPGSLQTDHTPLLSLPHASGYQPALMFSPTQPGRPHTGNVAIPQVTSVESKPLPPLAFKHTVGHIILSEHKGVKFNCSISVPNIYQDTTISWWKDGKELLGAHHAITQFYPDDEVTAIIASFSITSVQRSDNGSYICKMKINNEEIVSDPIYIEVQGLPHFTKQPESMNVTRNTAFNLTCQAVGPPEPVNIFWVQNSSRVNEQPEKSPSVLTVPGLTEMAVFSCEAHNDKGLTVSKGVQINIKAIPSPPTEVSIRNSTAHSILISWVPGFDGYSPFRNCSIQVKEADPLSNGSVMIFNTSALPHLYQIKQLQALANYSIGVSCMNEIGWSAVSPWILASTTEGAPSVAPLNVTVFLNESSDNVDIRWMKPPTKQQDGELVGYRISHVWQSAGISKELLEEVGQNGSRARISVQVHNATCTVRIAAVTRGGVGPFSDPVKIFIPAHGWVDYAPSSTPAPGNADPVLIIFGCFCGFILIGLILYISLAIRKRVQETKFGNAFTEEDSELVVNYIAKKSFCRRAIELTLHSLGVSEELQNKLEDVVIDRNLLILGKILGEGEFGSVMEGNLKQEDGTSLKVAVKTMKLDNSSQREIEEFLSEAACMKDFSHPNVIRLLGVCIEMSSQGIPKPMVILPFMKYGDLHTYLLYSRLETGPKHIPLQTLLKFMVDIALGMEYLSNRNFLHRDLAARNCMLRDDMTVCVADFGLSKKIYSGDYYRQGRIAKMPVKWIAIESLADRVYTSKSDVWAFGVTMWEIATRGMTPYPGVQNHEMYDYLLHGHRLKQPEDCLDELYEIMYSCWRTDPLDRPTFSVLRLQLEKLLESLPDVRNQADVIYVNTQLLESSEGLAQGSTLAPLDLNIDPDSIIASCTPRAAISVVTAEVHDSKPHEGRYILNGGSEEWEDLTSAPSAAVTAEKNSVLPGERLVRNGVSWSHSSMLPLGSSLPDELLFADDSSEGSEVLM

[5] = target: Serine/threonine-protein kinase B-raf (Homo sapiens) (UniProt P15056); experiment: Binding affinity to wild-type human partial length BRAF (S429 to E741 residues) expressed in mammalian expression system assessed as fraction of unbound kinase to substrate at 1 uM after 1 hr by KinomeScan assay
[6] = test system: A549; experiment: Antiproliferative activity against human A549 cells after 72 hrs by CellTiter-Glo assay; format: functional, cell-based
[7] = target: T2, Tyrosine-protein kinase receptor TYRO3 (Homo sapiens) (UniProt Q06418); experiment: Binding affinity to wild-type human partial length TYRO3 (S497 to T814 residues) expressed in bacterial expression system assessed as fraction of unbound kinase to substrate at 10 uM after 1 hr by KinomeScan assay
T2 sequence (whole entry): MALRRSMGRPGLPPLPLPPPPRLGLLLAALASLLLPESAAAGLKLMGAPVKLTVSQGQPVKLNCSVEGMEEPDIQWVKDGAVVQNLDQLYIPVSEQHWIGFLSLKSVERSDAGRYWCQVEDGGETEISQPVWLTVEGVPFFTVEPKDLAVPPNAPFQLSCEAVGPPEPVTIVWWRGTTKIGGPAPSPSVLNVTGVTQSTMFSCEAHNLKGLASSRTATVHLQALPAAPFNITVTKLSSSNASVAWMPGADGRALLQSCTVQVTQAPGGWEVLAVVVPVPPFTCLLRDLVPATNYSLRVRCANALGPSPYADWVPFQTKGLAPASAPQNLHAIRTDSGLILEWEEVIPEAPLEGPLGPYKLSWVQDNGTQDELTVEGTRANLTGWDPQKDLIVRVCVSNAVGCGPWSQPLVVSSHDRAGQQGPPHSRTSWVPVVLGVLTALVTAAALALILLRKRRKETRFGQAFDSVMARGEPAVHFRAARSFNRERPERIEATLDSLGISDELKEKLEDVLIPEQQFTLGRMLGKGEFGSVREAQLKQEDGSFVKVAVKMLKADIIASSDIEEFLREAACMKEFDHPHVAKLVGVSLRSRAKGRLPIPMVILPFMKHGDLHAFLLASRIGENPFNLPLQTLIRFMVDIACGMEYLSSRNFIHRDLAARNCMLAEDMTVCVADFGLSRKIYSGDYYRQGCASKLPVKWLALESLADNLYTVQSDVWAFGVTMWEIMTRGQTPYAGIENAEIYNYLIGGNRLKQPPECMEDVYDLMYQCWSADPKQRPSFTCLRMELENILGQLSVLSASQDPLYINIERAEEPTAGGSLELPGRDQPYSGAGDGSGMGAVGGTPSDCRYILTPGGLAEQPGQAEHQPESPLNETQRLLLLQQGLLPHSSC

[8] = target: T3, Aurora kinase A (Homo sapiens) (UniProt O14965); experiment: Binding affinity to wild-type human partial length AURKA (E122 to K401 residues) expressed in mammalian expression system assessed as fraction of unbound kinase to substrate at 1 uM after 1 hr by KinomeScan assay
T3 sequence (whole entry): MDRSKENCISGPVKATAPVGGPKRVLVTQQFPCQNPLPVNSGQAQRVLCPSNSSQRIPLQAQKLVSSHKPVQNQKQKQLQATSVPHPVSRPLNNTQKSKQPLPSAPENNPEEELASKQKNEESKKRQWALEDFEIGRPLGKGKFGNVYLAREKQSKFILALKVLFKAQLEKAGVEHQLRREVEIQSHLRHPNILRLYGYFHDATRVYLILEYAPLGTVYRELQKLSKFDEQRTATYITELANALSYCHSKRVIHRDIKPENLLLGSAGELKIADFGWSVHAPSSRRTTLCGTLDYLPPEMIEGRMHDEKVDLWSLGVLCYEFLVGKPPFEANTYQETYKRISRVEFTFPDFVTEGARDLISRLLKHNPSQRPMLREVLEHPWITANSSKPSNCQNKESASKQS

Tyrosine-protein kinase receptor UFO (Homo sapiens), sequence (P30530 whole entry, the tested form may be a part): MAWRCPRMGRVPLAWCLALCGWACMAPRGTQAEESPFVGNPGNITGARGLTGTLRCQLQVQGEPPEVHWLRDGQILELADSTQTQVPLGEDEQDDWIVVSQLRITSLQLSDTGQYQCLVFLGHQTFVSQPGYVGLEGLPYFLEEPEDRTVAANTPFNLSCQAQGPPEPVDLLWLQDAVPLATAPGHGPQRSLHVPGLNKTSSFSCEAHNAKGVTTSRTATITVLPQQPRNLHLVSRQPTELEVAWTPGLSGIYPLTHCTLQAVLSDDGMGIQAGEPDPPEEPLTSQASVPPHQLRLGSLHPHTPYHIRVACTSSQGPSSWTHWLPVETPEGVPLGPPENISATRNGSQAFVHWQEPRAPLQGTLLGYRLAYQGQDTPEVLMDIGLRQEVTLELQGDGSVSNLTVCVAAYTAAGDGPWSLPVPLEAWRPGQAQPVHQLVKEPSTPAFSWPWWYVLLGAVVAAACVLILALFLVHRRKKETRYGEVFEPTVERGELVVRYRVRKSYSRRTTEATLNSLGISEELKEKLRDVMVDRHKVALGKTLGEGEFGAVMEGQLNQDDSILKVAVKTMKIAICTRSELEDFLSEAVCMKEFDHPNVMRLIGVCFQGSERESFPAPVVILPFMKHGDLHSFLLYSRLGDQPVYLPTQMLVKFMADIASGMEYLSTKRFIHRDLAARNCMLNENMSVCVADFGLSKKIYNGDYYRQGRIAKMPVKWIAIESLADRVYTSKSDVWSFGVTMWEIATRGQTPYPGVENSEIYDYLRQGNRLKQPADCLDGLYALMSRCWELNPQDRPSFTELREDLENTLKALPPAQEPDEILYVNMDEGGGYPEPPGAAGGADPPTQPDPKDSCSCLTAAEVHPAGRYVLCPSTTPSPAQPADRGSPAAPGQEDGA
Serine/threonine-protein kinase B-raf (Homo sapiens), sequence (P15056 whole entry, the tested form may be a part): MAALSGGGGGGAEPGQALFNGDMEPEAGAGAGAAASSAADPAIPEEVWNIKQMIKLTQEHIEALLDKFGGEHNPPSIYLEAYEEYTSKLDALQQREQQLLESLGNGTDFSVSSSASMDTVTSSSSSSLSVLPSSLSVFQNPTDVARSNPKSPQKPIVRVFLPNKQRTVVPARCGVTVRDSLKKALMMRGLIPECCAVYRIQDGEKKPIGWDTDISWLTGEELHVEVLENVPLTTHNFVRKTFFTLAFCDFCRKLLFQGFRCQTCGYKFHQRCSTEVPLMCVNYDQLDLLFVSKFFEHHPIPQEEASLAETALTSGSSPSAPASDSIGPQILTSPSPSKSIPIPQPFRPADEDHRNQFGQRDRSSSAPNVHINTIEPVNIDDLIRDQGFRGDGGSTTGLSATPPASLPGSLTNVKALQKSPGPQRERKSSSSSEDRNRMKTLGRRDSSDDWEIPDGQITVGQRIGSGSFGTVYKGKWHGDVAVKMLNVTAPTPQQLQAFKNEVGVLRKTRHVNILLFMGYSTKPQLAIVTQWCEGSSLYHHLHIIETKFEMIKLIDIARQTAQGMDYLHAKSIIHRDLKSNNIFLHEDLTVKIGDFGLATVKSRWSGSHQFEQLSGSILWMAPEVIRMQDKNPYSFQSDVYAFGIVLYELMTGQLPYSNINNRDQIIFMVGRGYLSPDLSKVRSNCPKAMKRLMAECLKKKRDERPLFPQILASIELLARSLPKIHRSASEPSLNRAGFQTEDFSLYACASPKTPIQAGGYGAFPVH

| inhibition [1] | Activity [2] [%] | Activity [3] [%] | Activity [4] [%] | Activity [5] [%] | Activity [7] [%] | Activity [8] [%] | Compound | Activity [6] |
| --- | --- | --- | --- | --- | --- | --- | --- | --- |
| inactive | 18 | 90.1 | 99.1 | 2 | 5 | 6 | Cc1cnc2[nH]cnc2c1Oc1ccc(NC(=O)c2cccn(-c3ccc(F)cc3)c2=O)cc1F | inactive |
| inactive | 43 | 89 | 99.1 | 8 | 92.4 | 2 | CC(C)c1nc2c(Oc3ccc(NC(=O)c4cccn(-c5ccc(F)cc5)c4=O)cc3F)ccnc2[nH]1 | inactive |
| inactive | 10 | 90.4 | 98.2 | 0 | 10 | 9 | O=C(Nc1ccc(Oc2c(Br)cnc3[nH]cnc23)c(F)c1)c1cccn(-c2ccc(F)cc2)c1=O | – |
| Active | 58 | 93.3 | 99.6 | 12 | 99.8 | 2 | O=C(Nc1ccc(Oc2ccnc3[nH]cnc23)c(F)c1)c1cccn(-c2ccc(F)cc2)c1=O | inactive |
